Experimental data: paper PMC6770336, “Computationally Designed Peptides for Zika Virus Detection: An Incremental Construction Approach” (Biomolecules, 2019)

Assays:
[1] = test system: intact ZIKV particles; assay: Urine and serum matrix effect on the direct ELISA signal; format: binding, Zika virus; details: peptide 20 μM; for signal decrease in serum: serum diluted 1:10; for signal decrease in serum / signal decrease in urine: 10 mM PBS pH 7.4; for signal decrease in urine: urine diluted 1:1
Protocol: (§1) After coating the plates overnight, the intact virus particles were removed by washing five times with the washing buffer (PBST) 10 mM PBS pH 7.4, 0.1% Tween-20, using an automated plate washer (MultiWash+, Molecular Devices, Sunnyvale, CA). Then, the plates were blocked with 200 μL of blocking buffers while shaking at 300 rpm at room temperature. The blocking buffers used were Pierce™ protein-free (PBS) blocking buffer (PF), Blocker™ BLOTTO (BT) in TBS, SuperBlock^TM blocking buffer, Blocker™ BSA (1X) in PBS all from ThermoFisher Scientific. After 2 h, the blocking buffers were removed using the same washing procedure mentioned above. Hundred microliter aliquots of several dilutions of peptides biotinylated in 10 mM PBS pH 7.4 were placed in each well and incubated for 2 h while shaking at 300 rpm at room temperature. After the incubation, the unreacted peptides were removed by using the plate washer with the same settings. Then, 100 μL-aliquots of streptavidin-HRP (ThermoFisher Scientific) at a concentration of 20 ng/mL were added into each well and incubated for 30 min at room temperature without shaking. After the incubation, excess streptavidin-HRP was removed and the wells were washed with the plate washer five times using the washing buffer. Finally, 100 μL-aliquots of the Ultra TMB-ELISA substrate solution (ThermoFisher Scientific) were added and after 10 min, the reaction was stopped by adding 100 μL aliquots of the TMB stop solution from SeraCare, available online at; https://www.seracare.com (accessed on 1 abril 2019). The […] (450 nm) was read using a microplate reader (Clariostar Optima; BMG Labtech, Ortenberg, Germany).
Usually, the presence of ZIKV in affected bodies is detected in biological fluids. Therefore, the analytical sensitivity of the selected peptides was tested in two biological matrices, namely, urine and serum. The matrix effect was investigated to understand how real biological fluids could modify the binding efficiency of the peptides.
Figure 8 reports the ELISA data using solutions of peptides with or without the urine and serum obtained, coating clear 96-well plates with 10^6 and 10^7 copies/mL of intact ZIKV particles. Serum and urine were 1:10 and 1:1 diluted, respectively, with a concentrated peptide PBS solution to obtain a peptide final concentration of 20 μM (10 mM PBS, pH 7.4). A coating concentration of 10^5 was also tested, but no signal was observed after the addition of the biological matrix.

[2] = test system: intact ZIKV particles; assay: Direct ELISA vs. intact ZIKV particles; format: binding, Zika virus; details: for FPLR—Dynamic Range: direct ELISA, plates coated with 10-fold serial dilutions of intact ZIKV particles, biotinylated peptide 20 μM in PBS pH 7.4 (4G2 1 μg/mL in PBST), absorbance 450 nm; for FPLR—Dynamic Range / FPLR—maximum / FPLR—minimum: four parameters logistic fit; for FPLR—Dynamic Range / FPLR—C50 / LOD: n = 3; for Long-term stability: dose-response performance of the ELISA reproducible over time, stock 1 mM in 10 mM PBS pH 7.4 stored at −30° C; for FPLR—C50: four parameters logistic fit of delta absorbance vs log ZIKV concentration; for FPLR—C50 / FPLR—maximum / FPLR—minimum / LOD: peptide 20 μM in PBS (4G2 1 μg/mL in PBST); for LOD: interpolated from calibration curve, LOD = AvB + 3 × SDB
Protocol: Before biotin functionalization, peptides stock solution was reduced using Tris[2-carboxyethyl] phosphine hydrochloride (TCEP) disulfide reducing gel from ThermoFisher Scientific available online at: www.thermofisher.com (accessed on 15 April 2019) and after 1 h, the gel was removed using TCEP gel spin separation columns (ThermoFisher Scientific). Then, two-fold molar excess of EZ-Link™ Maleimide-PEG2-Biotin (ThermoFisher Scientific) was added to purified peptide solution and incubated for 1 h. […] Therefore, no further separation was carried out.
(§2) To optimize all parameters of the direct ELISA protocol, Pierce 96-well polystyrene plates, (ThermoFisher Scientific) were coated overnight at 4° C with different concentrations of intact virus particles (ZIKV or DENV). The intact virus particles were diluted using 100 mM NaHCO3, pH 9.6, and aliquots of 100 μL were dispensed into each well of the plate using a multichannel pipette. This buffer pH assured a strong hydrophobic binding interaction between polystyrene and virus particles.
The antibody 4G2 hybridoma mouse IgG2a was used as the reference and employed in combination with an anti-mouse IgG conjugated to HRP.
as §1
The corresponding blank signals in triplicates were obtained by using all reagents without peptides. They were subtracted to the average absorbance values for triplicate wells of each test.
The optimal concentration of peptide was determined by coating clear 96-well plates with a solution of 10^7 copies/mL of intact ZIKV particles. Concentrations of peptide, from 0.1 to 50 μM, diluted in 10 mM PBS pH 7.4 were added to wells of the microplates coated with intact ZIKV particles. […] Thus, a peptide concentration of 20 μM was used to estimate the linear range and the limit of detection (LOD) of the assay by using 10-fold serial dilutions of intact ZIKV particles from 10^1 to 10^9 copies/mL.
The regression parameters of the assay are reported in Table 4 and the sigmoidal trend in Figure 6. The LOD was interpolated from the calibration curves using LOD = AvB + 3 × SDB, where AvB and SDB were the average (Av) and the standard deviation (SD) of the blank measurements, respectively.

[3] = test system: DENV-1 intact virus particles; assay: Direct ELISA cross-reactivity, DENV-1; format: binding; details: plates coated with 10^6 copies/mL of intact virus particles; peptide 20 μM
Protocol: as §2
(§3) After coating the plates overnight, the intact virus particles were removed by washing five times with the washing buffer (PBST) 10 mM PBS pH 7.4, 0.1% Tween-20, using an automated plate washer (MultiWash+, Molecular Devices, Sunnyvale, CA). Then, the plates were blocked with 200 μL of blocking buffers while shaking at 300 rpm at room temperature. The blocking buffers used were Pierce™ protein-free (PBS) blocking buffer (PF), Blocker™ BLOTTO (BT) in TBS, SuperBlock^TM blocking buffer, Blocker™ BSA (1X) in PBS all from ThermoFisher Scientific. After 2 h, the blocking buffers were removed using the same washing procedure mentioned above. […] The […] (450 nm) was read using a microplate reader (Clariostar Optima; BMG Labtech, Ortenberg, Germany). […]

[4] = test system: DENV-2 intact virus particles; assay: Direct ELISA cross-reactivity, DENV-2; format: binding; details: plates coated with 10^6 copies/mL of intact virus particles; peptide 20 μM
Protocol: as §2, §3

[5] = 10^6 copies/mL of intact ZIKV particles
[6] = 10^7 copies/mL of intact ZIKV particles

## C-GSKANNG [H1, experimental peptide with N-terminal cysteine, labelled with maleimide-PEG2-biotin for ELISA]
[1]; [5]
  signal decrease in serum: 82%
  signal decrease in urine: 53%
[1]; [6]
  signal decrease in serum: 73%
  signal decrease in urine: 45%
[2]
  FPLR—Dynamic Range: 5-7 log[ZIKV], copies/mL
  Long-term stability: >1 Month
  FPLR—C50: 6.2 log[ZIKV], copies/mL
  FPLR—maximum: 0.826 Absorbance (450 nm)
  FPLR—minimum: 0.036 Absorbance (450 nm)
  LOD: 4.5 log[ZIKV], copies/mL
[3]
  DENV/ZIKV signal ratio, DENV-1: up to 42%

## C-KRNATP [X1, experimental peptide with N-terminal cysteine, labelled with maleimide-PEG2-biotin for ELISA]
[1]; serum 1:10 and urine 1:1
  detection limit in urine and serum: 10^7 copies/mL
[1]; [5]
  signal decrease in serum: 95%
  signal decrease in urine: 95%
[1]; [6]
  signal decrease in serum: 89%
  signal decrease in urine: 82%
[2]
  FPLR—Dynamic Range: 5-7 log[ZIKV], copies/mL
  Long-term stability: >1 Month
  FPLR—C50: 6.1 log[ZIKV], copies/mL
  FPLR—maximum: 0.973 Absorbance (450 nm)
  FPLR—minimum: 0.026 Absorbance (450 nm)
  LOD: 4.8 log[ZIKV], copies/mL
[3]
  DENV/ZIKV signal ratio, DENV-1: 32%
[4]
  DENV/ZIKV signal ratio, DENV-2: 49%

## C-KTDAYS [X2, experimental peptide with N-terminal cysteine, labelled with maleimide-PEG2-biotin for ELISA]
[2]
  FPLR—Dynamic Range: 6-8 log[ZIKV], copies/mL
  Long-term stability: >1 Month
  FPLR—C50: 6.2 log[ZIKV], copies/mL
  FPLR—maximum: 0.915 Absorbance (450 nm)
  FPLR—minimum: 0.007 Absorbance (450 nm)
  LOD: 5.8 log[ZIKV], copies/mL

## C-LRGHA [P2, experimental peptide with N-terminal cysteine, labelled with maleimide-PEG2-biotin for ELISA]
[1]; [5]
  signal decrease in serum: 77%
  signal decrease in urine: 72%
[1]; [6]
  signal decrease in serum: 72%
  signal decrease in urine: 85%
[2]
  FPLR—Dynamic Range: 5-7 log[ZIKV], copies/mL
  Long-term stability: >1 Month
  FPLR—C50: 6.1 log[ZIKV], copies/mL
  FPLR—maximum: 0.928 Absorbance (450 nm)
  FPLR—minimum: 0.036 Absorbance (450 nm)
  LOD: 4.7 log[ZIKV], copies/mL
[4]
  DENV/ZIKV signal ratio, DENV-2: 34%

## C-SHRNATA [H2, experimental peptide with N-terminal cysteine, labelled with maleimide-PEG2-biotin for ELISA]
[2]
  FPLR—Dynamic Range: 6-8 log[ZIKV], copies/mL
  Long-term stability: >1 Month
  FPLR—C50: 6.5 log[ZIKV], copies/mL
  FPLR—maximum: 0.683 Absorbance (450 nm)
  FPLR—minimum: 0.014 Absorbance (450 nm)
  LOD: 5.7 log[ZIKV], copies/mL

## C-SWPGQ [P1, experimental peptide with N-terminal cysteine, labelled with maleimide-PEG2-biotin for ELISA]
[2]
  FPLR—Dynamic Range: 7-8 log[ZIKV], copies/mL
  Long-term stability: >1 Month
  FPLR—C50: 6.6 log[ZIKV], copies/mL
  FPLR—maximum: 0.140 Absorbance (450 nm)
  FPLR—minimum: 0.001 Absorbance (450 nm)
  LOD: 6.8 log[ZIKV], copies/mL
